Source: patent publication US6638973B2, “Taxane formulations” (FSU Research Foundation, Inc., priority 2000, dated 2003)

The compounds below were run on HCT116 cells (assay: In vitro cytotoxicity measured by the cell colony formation assay). Conditions: HCT116 cells, 72 h drug incubation, colonies counted after 7 days; ID50 = drug concentration producing 50% inhibition of colony formation; read-out: IN VITRO ID 50 (nm) HCT116.
Assay type: cell-based
Outline: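 Colony-forming survival was scored 7 days after a 72 h, 37 °C compound exposure followed by washout into fresh medium.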
In the case of `CCNC(=O)O[C@H]1C[C@H]2OC[C@@]2(OC(C)=O)C2[C@H](OC(=O)c3ccccc3)[C@]3(O)C[C@H](OC(=O)[C@H](O)[C@@H](NC(=O)OC(C)(C)C)c4ccco4)C(C)=C([C@@H](O)C(=O)[C@@]21C)C3(C)C` (some centres unmarked) [Compound 5393], the IC50 is reported as under 1 nM.

Same assay, conditions: HCT116 cells, 72 h incubation with drug, colonies counted after 7 days; ID50 = drug concentration producing 50% inhibition of colony formation; read-out: IN VITRO ID 50 (nm) HCT116
In the case of `COC(=O)O[C@H]1C(=O)[C@@]2(C)C([C@H](OC(=O)c3ccccc3)[C@]3(O)C[C@H](OC(=O)[C@H](O)[C@@H](NC(=O)OC(C)(C)C)c4cccnc4)C(C)=C1C3(C)C)[C@]1(OC(C)=O)CO[C@@H]1C[C@@H]2O` (some centres unmarked) [Compound 2011], the IC50 is reported as under 10 nM.
Compound `COC(=O)O[C@H]1C(=O)[C@@]2(C)C([C@H](OC(=O)c3ccccc3)[C@]3(O)C[C@H](OC(=O)[C@H](O)[C@@H](NC(=O)OC(C)(C)C)c4ccncc4)C(C)=C1C3(C)C)[C@]1(OC(C)=O)CO[C@@H]1C[C@@H]2O` (some centres unmarked) [Compound 2020] has an IC50 of under 1 nM.
Work on `C/C=C/C(=O)N[C@@H](c1ccoc1)[C@@H](O)C(=O)O[C@H]1C[C@@]2(O)[C@@H](OC(=O)c3ccccc3)C3[C@](C)(C(=O)[C@H](O)C(=C1C)C2(C)C)[C@@H](OC(=O)OCC)C[C@H]1OC[C@@]31OC(C)=O` (some centres unmarked) [Compound 4904] yielded an IC50 of under 10 nM.
With `C/C=C/C(=O)N[C@@H](c1ccsc1)[C@@H](O)C(=O)O[C@H]1C[C@@]2(O)[C@@H](OC(=O)c3ccccc3)C3[C@](C)(C(=O)[C@H](O)C(=C1C)C2(C)C)[C@@H](OC(=O)OC)C[C@H]1OC[C@@]31OC(C)=O` (some centres unmarked) [Compound 4969] the IC50 was under 1 nM.
Compound `CCOC(=O)O[C@H]1C(=O)[C@@]2(C)C([C@H](OC(=O)c3ccccc3)[C@]3(O)C[C@H](OC(=O)[C@H](O)[C@@H](NC(=O)c4cccs4)c4ccco4)C(C)=C1C3(C)C)[C@]1(OC(C)=O)CO[C@@H]1C[C@@H]2O` (some centres unmarked) [Compound 4088] has an IC50 of under 10 nM.
In the case of `COC(=O)O[C@H]1C[C@H]2OC[C@@]2(OC(C)=O)C2[C@H](OC(=O)c3ccccc3)[C@]3(O)C[C@H](OC(=O)[C@H](O)[C@@H](NC(=O)c4ccccc4)c4cccs4)C(C)=C([C@@H](O)C(=O)[C@@]21C)C3(C)C` (some centres unmarked) [Compound 4411], the IC50 is reported as under 1 nM.
`CCOC(=O)N[C@@H](c1cccs1)[C@@H](O)C(=O)O[C@H]1C[C@@]2(O)[C@@H](OC(=O)c3ccccc3)C3[C@](C)(C(=O)[C@H](OC(=O)OCC)C(=C1C)C2(C)C)[C@@H](O)C[C@H]1OC[C@@]31OC(C)=O` (some centres unmarked) [Compound 2988] showed an IC50 of under 1 nM.
With `CCOC(=O)O[C@H]1C(=O)[C@@]2(C)C([C@H](OC(=O)c3ccccc3)[C@]3(O)C[C@H](OC(=O)[C@H](O)[C@@H](NC(=O)OC(C)C)c4ccco4)C(C)=C1C3(C)C)[C@]1(OC(C)=O)CO[C@@H]1C[C@@H]2O` (some centres unmarked) [Compound 3963] the IC50 was under 1 nM.
With `CCOC(=O)O[C@H]1C(=O)[C@@]2(C)C([C@H](OC(=O)c3ccccc3)[C@]3(O)C[C@H](OC(=O)[C@H](O)[C@@H](NC(=O)OC(C)(C)C)C(C)C)C(C)=C1C3(C)C)[C@]1(OC(C)=O)CO[C@@H]1C[C@@H]2O` (some centres unmarked) [Compound 1767] the IC50 was under 10 nM.

Same assay, conditions: HCT116 cells, colony formation, 72 h incubation with drug, colonies counted after 7 days; ID50 = drug concentration producing 50% inhibition of colony formation; read-out: IN VITRO ID 50 (nm) HCT116
Compound `CCNC(=O)O[C@H]1C(=O)[C@@]2(C)C([C@H](OC(=O)c3ccccc3)[C@]3(O)C[C@H](OC(=O)[C@H](O)[C@@H](NC(=O)OC(C)(C)C)C4CCC4)C(C)=C1C3(C)C)[C@]1(OC(C)=O)CO[C@@H]1C[C@@H]2O` (some centres unmarked) [Compound 2733] has an IC50 of under 10 nM.
With `CCNC(=O)O[C@H]1C(=O)[C@@]2(C)C([C@H](OC(=O)c3ccccc3)[C@]3(O)C[C@H](OC(=O)[C@H](O)[C@@H](NC(=O)OC(C)(C)C)c4cccs4)C(C)=C1C3(C)C)[C@]1(OC(C)=O)CO[C@@H]1C[C@@H]2O` (some centres unmarked) [Compound 2722, 3′-Desphenyl-3′-(2-thienyl)-10-N-ethylcarbamoyl docetaxel] the IC50 was under 1 nM.

Same assay, conditions: HCT116 colony formation; 72 h drug incubation, colonies counted after 7 days; Example 5, C-7 ester/C-10 hydroxy taxanes; read-out: IN VITRO ID 50 (nm) HCT116
Compound `CCC(=O)O[C@H]1C[C@H]2OC[C@@]2(OC(C)=O)C2[C@H](OC(=O)c3ccccc3)[C@]3(O)C[C@H](OC(=O)[C@H](O)[C@@H](NC(=O)c4cccnc4)c4cccs4)C(C)=C([C@@H](O)C(=O)[C@@]21C)C3(C)C` (some centres unmarked) [Compound 4106] has an IC50 of under 10 nM.
Work on `CCC(=O)O[C@H]1C[C@H]2OC[C@@]2(OC(C)=O)C2[C@H](OC(=O)c3ccccc3)[C@]3(O)C[C@H](OC(=O)[C@H](O)[C@@H](NC(=O)OC=C(C)C)c4ccco4)C(C)=C([C@@H](O)C(=O)[C@@]21C)C3(C)C` (some centres unmarked) [Compound 6171] yielded an IC50 of under 10 nM.
In the case of `CCCC(=O)O[C@H]1C[C@H]2OC[C@@]2(OC(C)=O)C2[C@H](OC(=O)c3ccccc3)[C@]3(O)C[C@H](OC(=O)[C@H](O)[C@@H](NC(=O)OCC(C)C)c4ccsc4)C(C)=C([C@@H](O)C(=O)[C@@]21C)C3(C)C` (some centres unmarked) [Compound 4600], the IC50 is reported as under 10 nM.
For `CCC(=O)O[C@H]1C[C@H]2OC[C@@]2(OC(C)=O)C2[C@H](OC(=O)c3ccccc3)[C@]3(O)C[C@H](OC(=O)[C@H](O)[C@@H](NC(=O)c4ccccc4)c4ccco4)C(C)=C([C@@H](O)C(=O)[C@@]21C)C3(C)C` (some centres unmarked) [Compound 4017], the IC50 was under 10 nM.
`CCC(=O)O[C@H]1C[C@H]2OC[C@@]2(OC(C)=O)C2[C@H](OC(=O)c3ccccc3)[C@]3(O)C[C@H](OC(=O)[C@H](O)[C@H](C=C(C)C)NC(=O)OC(C)(C)C)C(C)=C([C@@H](O)C(=O)[C@@]21C)C3(C)C` (some centres unmarked) [Compound 1351] showed an IC50 of under 1 nM.
Work on `CCCC(=O)N[C@@H](c1cccs1)[C@@H](O)C(=O)O[C@H]1C[C@@]2(O)[C@@H](OC(=O)c3ccccc3)C3[C@](C)(C(=O)[C@H](O)C(=C1C)C2(C)C)[C@@H](OC(=O)CC)C[C@H]1OC[C@@]31OC(C)=O` (some centres unmarked) [Compound 3327] yielded an IC50 of under 10 nM.
`CCCC(=O)O[C@H]1C[C@H]2OC[C@@]2(OC(C)=O)C2[C@H](OC(=O)c3ccccc3)[C@]3(O)C[C@H](OC(=O)[C@H](O)[C@@H](NC(=O)OC(C)(C)CC)c4ccco4)C(C)=C([C@@H](O)C(=O)[C@@]21C)C3(C)C` (some centres unmarked) [Compound 6272] gave an IC50 of under 1 nM.
Work on `CCCC(=O)O[C@H]1C[C@H]2OC[C@@]2(OC(C)=O)C2[C@H](OC(=O)c3ccccc3)[C@]3(O)C[C@H](OC(=O)[C@H](O)[C@@H](NC(=O)C=C(C)C)c4cccs4)C(C)=C([C@@H](O)C(=O)[C@@]21C)C3(C)C` (some centres unmarked) [Compound 4283] yielded an IC50 of under 1 nM.
`C/C=C/C(=O)N[C@@H](c1cccs1)[C@@H](O)C(=O)O[C@H]1C[C@@]2(O)[C@@H](OC(=O)c3ccccc3)C3[C@](C)(C(=O)[C@H](O)C(=C1C)C2(C)C)[C@@H](OC(=O)CCC)C[C@H]1OC[C@@]31OC(C)=O` (some centres unmarked) [Compound 4757] gave an IC50 of under 1 nM.

Same assay, conditions: HCT116 colony formation; 72 h drug incubation, colonies counted after 7 days; Example 10, C-10 ester/C-7 hydroxy taxanes; read-out: IN VITRO ID 50 (nm) HCT116
For `CCC(=O)O[C@H]1C(=O)[C@@]2(C)C([C@H](OC(=O)c3ccccc3)[C@]3(O)C[C@H](OC(=O)[C@H](O)[C@@H](NC(=O)OC(C)(C)C)C4CC4)C(C)=C1C3(C)C)[C@]1(OC(C)=O)CO[C@@H]1C[C@@H]2O` (some centres unmarked) [Compound 0578], the IC50 was under 1 nM.
Compound `CCCC(=O)O[C@H]1C(=O)[C@@]2(C)C([C@H](OC(=O)c3ccccc3)[C@]3(O)C[C@H](OC(=O)[C@H](O)[C@@H](NC(=O)OC(C)C)c4ccco4)C(C)=C1C3(C)C)[C@]1(OC(C)=O)CO[C@@H]1C[C@@H]2O` (some centres unmarked) [Compound 3417] has an IC50 of under 1 nM.
Work on `CCCC(=O)O[C@H]1C(=O)[C@@]2(C)C([C@H](OC(=O)c3ccccc3)[C@]3(O)C[C@H](OC(=O)[C@H](O)[C@@H](NC(=O)OCC(C)C)c4ccoc4)C(C)=C1C3(C)C)[C@]1(OC(C)=O)CO[C@@H]1C[C@@H]2O` (some centres unmarked) [Compound 4704] yielded an IC50 of under 10 nM.
With `CCC(=O)O[C@H]1C(=O)[C@@]2(C)C([C@H](OC(=O)c3ccccc3)[C@]3(O)C[C@H](OC(=O)[C@H](O)[C@@H](NC(=O)OCC(C)C)c4ccsc4)C(C)=C1C3(C)C)[C@]1(OC(C)=O)CO[C@@H]1C[C@@H]2O` (some centres unmarked) [Compound 4711] the IC50 was under 10 nM.
`CC(=O)O[C@@]12CO[C@@H]1C[C@H](O)[C@@]1(C)C(=O)[C@H](OC(=O)C3CC3)C3=C(C)[C@@H](OC(=O)[C@H](O)[C@@H](NC(=O)OC(C)(C)C)c4ccoc4)C[C@@](O)([C@@H](OC(=O)c4ccccc4)C12)C3(C)C` (some centres unmarked) [Compound 2781] showed an IC50 of under 1 nM.
In the case of `CC(=O)OC12COC1CC(O)C1(C)C(=O)C(OC(=O)c3cccs3)C3=C(C)C(OC(=O)C(O)C(NC(=O)OC(C)(C)C)c4cccnc4)CC(O)(C(OC(=O)c4ccccc4)C21)C3(C)C` (centres unmarked) [Compound 1948], the IC50 is reported as under 10 nM.
`C/C=C/C(=O)N[C@@H](c1ccoc1)[C@@H](O)C(=O)O[C@H]1C[C@@]2(O)[C@@H](OC(=O)c3ccccc3)C3[C@](C)(C(=O)[C@H](OC(=O)CC)C(=C1C)C2(C)C)[C@@H](O)C[C@H]1OC[C@@]31OC(C)=O` (some centres unmarked) [Compound 4888] gave an IC50 of under 1 nM.
`CC(=O)O[C@@]12CO[C@@H]1C[C@H](O)[C@@]1(C)C(=O)[C@H](OC(=O)C3CC3)C3=C(C)[C@@H](OC(=O)[C@H](O)[C@@H](NC(=O)c4cccnc4)c4cccs4)C[C@@](O)([C@@H](OC(=O)c4ccccc4)C12)C3(C)C` (some centres unmarked) [Compound 4112] was tested, and the IC50 was under 10 nM.
Work on `CCC(=O)O[C@H]1C(=O)[C@@]2(C)C([C@H](OC(=O)c3ccccc3)[C@]3(O)C[C@H](OC(=O)[C@H](O)[C@@H](NC(=O)OC(C)(C)C)c4ccncc4)C(C)=C1C3(C)C)[C@]1(OC(C)=O)CO[C@@H]1C[C@@H]2O` (some centres unmarked) [Compound 0521] yielded an IC50 of under 1 nM.

Same assay, conditions: HCT116 colony formation; 72 h drug incubation, colonies counted after 7 days; Example 15, C-7 substituted acetate/C-10 hydroxy taxanes; read-out: IN VITRO ID 50 (nm) HCT116
`C/C=C/C(=O)N[C@@H](c1ccco1)[C@@H](O)C(=O)O[C@H]1C[C@@]2(O)[C@@H](OC(=O)c3ccccc3)C3[C@](C)(C(=O)[C@H](O)C(=C1C)C2(C)C)[C@@H](OC(=O)COc1ccccc1)C[C@H]1OC[C@@]31OC(C)=O` (some centres unmarked) [Compound 5811] showed an IC50 of under 1 nM.

Same assay, conditions: HCT116 colony formation; 72 h drug incubation, colonies counted after 7 days; Example 20, C-10 substituted acetate/C-7 hydroxy taxanes; read-out: IN VITRO ID 50 (nm) HCT116
`CCC(C)(C)OC(=O)N[C@@H](c1ccco1)[C@@H](O)C(=O)O[C@H]1C[C@@]2(O)[C@@H](OC(=O)c3ccccc3)C3[C@](C)(C(=O)[C@H](OC(=O)COC(C)=O)C(=C1C)C2(C)C)[C@@H](O)C[C@H]1OC[C@@]31OC(C)=O` (some centres unmarked) [Compound 6577] showed an IC50 of under 1 nM.
